Tests used:
Assay in all cases: Test D pre-/postemergence plant response
Assay type in all cases: in vivo
[1] = system: morningglory (Ipomoea coccinea); conditions: Postemergence; for Plant response rating, Morningglory: scale 0 to 100, 0 no effect, 100 complete control
Outline: (§1)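 Visual rating, 0–100 scale (0 = no effect, 100 = complete control), versus untreated controls 13 to 15 days after treatment in greenhouse. Preemergence: seeds in loam/sand soil. Postemergence: 2 to 18 cm plants, 1- to 4-leaf stage, peat-based medium. Compounds formulated in non-phytotoxic solvent plus surfactant.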

[2] = system: large (Lg) crabgrass (Digitaria sanguinalis); conditions: Postemergence; for Crabgrass, Large plant response rating: scale 0 to 100 (0 no effect, 100 complete control); for Plant response rating, Crabgrass, Large: scale 0 to 100, 0 no effect, 100 complete control
Outline: as §1

[3] = system: oilseed rape (Brassica napus); conditions: Postemergence; for Plant response rating, Oilseed Rape: scale 0 to 100, 0 no effect, 100 complete control
Outline: as §1

[4] = system: blackgrass (Alopecurus myosuroides); conditions: Postemergence; for Blackgrass plant response rating: scale 0 to 100 (0 no effect, 100 complete control); for Plant response rating, Blackgrass: scale 0 to 100, 0 no effect, 100 complete control
Outline: as §1

[5] = system: galium (catchweed bedstraw, Galium aparine); conditions: Postemergence; for Plant response rating, Galium: scale 0 to 100, 0 no effect, 100 complete control
Outline: as §1

[6] = system: giant foxtail (Setaria faberii); conditions: Postemergence; for Foxtail, Giant plant response rating: scale 0 to 100 (0 no effect, 100 complete control); for Plant response rating, Foxtail, Giant: scale 0 to 100, 0 no effect, 100 complete control
Outline: as §1

[7] = system: yellow nutsedge (Cyperus esculentus); conditions: Postemergence; for Plant response rating, Nutsedge, Yellow: scale 0 to 100, 0 no effect, 100 complete control
Outline: as §1

[8] = system: ragweed (common ragweed, Ambrosia elatior); conditions: Postemergence; for Plant response rating, Ragweed: scale 0 to 100, 0 no effect, 100 complete control
Outline: as §1

[9] = system: soybean (Glycine max); conditions: Postemergence; for Plant response rating, Soybean: scale 0 to 100, 0 no effect, 100 complete control
Outline: as §1

[10] = system: corn (Zea mays); conditions: Postemergence; for Corn plant response rating: scale 0 to 100 (0 no effect, 100 complete control); for Plant response rating, Corn: scale 0 to 100, 0 no effect, 100 complete control
Outline: as §1

[11] = system: Italian ryegrass (Lolium multiflorum); conditions: Postemergence; for Plant response rating, Ryegrass, Italian: scale 0 to 100, 0 no effect, 100 complete control
Outline: as §1

[12] = system: barnyardgrass (Echinochloa crus-galli); conditions: Postemergence; for Barnyardgrass plant response rating: scale 0 to 100 (0 no effect, 100 complete control); for Plant response rating, Barnyardgrass: scale 0 to 100, 0 no effect, 100 complete control
Outline: as §1

[13] = system: waterhemp (common waterhemp, Amaranthus rudis); conditions: Postemergence; for Plant response rating, Waterhemp: scale 0 to 100, 0 no effect, 100 complete control
Outline: as §1

[14] = system: velvetleaf (Abutilon theophrasti); conditions: Postemergence; for Plant response rating, Velvetleaf: scale 0 to 100, 0 no effect, 100 complete control
Outline: as §1

[15] = system: pigweed (Amaranthus retroflexus); conditions: Postemergence; for Plant response rating, Pigweed: scale 0 to 100, 0 no effect, 100 complete control
Outline: as §1

[16] = system: johnsongrass (Sorghum halepense); conditions: Postemergence; for Plant response rating, Johnsongrass: scale 0 to 100, 0 no effect, 100 complete control
Outline: as §1

[17] = system: lambsquarters (Chenopodium album); conditions: Postemergence; for Plant response rating, Lambsquarters: scale 0 to 100, 0 no effect, 100 complete control
Outline: as §1

[18] = system: winter wheat (Triticum aestivum); conditions: Postemergence; for Plant response rating, Wheat: scale 0 to 100, 0 no effect, 100 complete control
Outline: as §1

[19] = 31 g ai/ha, scale 0 to 100 (0 no effect, 100 complete control)

For `FC(F)(F)c1cc(-c2c(Cl)cccc2Oc2ncc(Cl)cn2)no1` [Compound 169], the “Morningglory plant response rating” value [1, 19] was 15, the “Plant response rating, Morningglory” value ([1]; 62 g ai/ha) was 55 and the “Plant response rating, Morningglory” value ([1]; 125 g ai/ha) was 65. The “Crabgrass, Large plant response rating” value ([2]; 16 g ai/ha) was 5, the “Crabgrass, Large plant response rating” value ([2]; 31 g ai/ha) was 5 and the “Plant response rating, Crabgrass, Large” value ([2]; 62 g ai/ha) was 10. For the same molecule, the “Plant response rating, Crabgrass, Large” value ([2]; 125 g ai/ha) was 10, the “Oilseed Rape plant response rating” value [3, 19] was 5 and the “Plant response rating, Oilseed Rape” value ([3]; 62 g ai/ha) was 10. For the same molecule, the “Plant response rating, Oilseed Rape” value ([3]; 125 g ai/ha) was 60, the “Blackgrass plant response rating” value ([4]; 16 g ai/ha) was 0 and the “Blackgrass plant response rating” value ([4]; 31 g ai/ha) was 0. The “Plant response rating, Blackgrass” value ([4]; 62 g ai/ha) was 0, the “Plant response rating, Blackgrass” value ([4]; 125 g ai/ha) was 25 and the “Galium plant response rating” value [5, 19] was 70. For the same molecule, the “Plant response rating, Galium” value ([5]; 62 g ai/ha) was 70, the “Plant response rating, Galium” value ([5]; 125 g ai/ha) was 75 and the “Foxtail, Giant plant response rating” value ([6]; 16 g ai/ha) was 0. For the same molecule, the “Foxtail, Giant plant response rating” value ([6]; 31 g ai/ha) was 5, the “Plant response rating, Foxtail, Giant” value ([6]; 62 g ai/ha) was 25 and the “Plant response rating, Foxtail, Giant” value ([6]; 125 g ai/ha) was 55. For the same molecule, the “Nutsedge, Yellow plant response rating” value [7, 19] was 0, the “Plant response rating, Nutsedge, Yellow” value ([7]; 62 g ai/ha) was 0 and the “Plant response rating, Nutsedge, Yellow” value ([7]; 125 g ai/ha) was 5. For the same molecule, the “Ragweed plant response rating” value [8, 19] was 5, the “Plant response rating, Ragweed” value ([8]; 62 g ai/ha) was 25 and the “Plant response rating, Ragweed” value ([8]; 125 g ai/ha) was 35. The “Soybean plant response rating” value [9, 19] was 5, the “Plant response rating, Soybean” value ([9]; 62 g ai/ha) was 15 and the “Plant response rating, Soybean” value ([9]; 125 g ai/ha) was 25. For the same molecule, the “Corn plant response rating” value ([10]; 16 g ai/ha) was 0, the “Corn plant response rating” value ([10]; 31 g ai/ha) was 5 and the “Plant response rating, Corn” value ([10]; 62 g ai/ha) was 10. For the same molecule, the “Plant response rating, Corn” value ([10]; 125 g ai/ha) was 10, the “Ryegrass, Italian plant response rating” value [11, 19] was 0 and the “Plant response rating, Ryegrass, Italian” value ([11]; 62 g ai/ha) was 5. The “Plant response rating, Ryegrass, Italian” value ([11]; 125 g ai/ha) was 15, the “Barnyardgrass plant response rating” value ([12]; 16 g ai/ha) was 5 and the “Barnyardgrass plant response rating” value ([12]; 31 g ai/ha) was 5. For the same molecule, the “Plant response rating, Barnyardgrass” value ([12]; 62 g ai/ha) was 5, the “Plant response rating, Barnyardgrass” value ([12]; 125 g ai/ha) was 5 and the “Waterhemp plant response rating” value [13, 19] was 90. The “Plant response rating, Waterhemp” value ([13]; 62 g ai/ha) was 90, the “Plant response rating, Waterhemp” value ([13]; 125 g ai/ha) was 90 and the “Velvetleaf plant response rating” value [14, 19] was 10. For the same molecule, the “Plant response rating, Velvetleaf” value ([14]; 62 g ai/ha) was 20, the “Plant response rating, Velvetleaf” value ([14]; 125 g ai/ha) was 30 and the “Pigweed plant response rating” value [15, 19] was 80. For the same molecule, the “Plant response rating, Pigweed” value ([15]; 62 g ai/ha) was 80, the “Plant response rating, Pigweed” value ([15]; 125 g ai/ha) was 98 and the “Johnsongrass plant response rating” value [16, 19] was 0. For the same molecule, the “Plant response rating, Johnsongrass” value ([16]; 62 g ai/ha) was 0, the “Plant response rating, Johnsongrass” value ([16]; 125 g ai/ha) was 5 and the “Lambsquarters plant response rating” value [17, 19] was 40. The “Plant response rating, Lambsquarters” value ([17]; 62 g ai/ha) was 35, the “Plant response rating, Lambsquarters” value ([17]; 125 g ai/ha) was 80 and the “Wheat plant response rating” value [18, 19] was 5. The “Plant response rating, Wheat” value ([18]; 62 g ai/ha) was 10 and the “Plant response rating, Wheat” value ([18]; 125 g ai/ha) was 10.

From US10131652B2, “Pyrimidinyloxy benzene derivatives as herbicides” (E. I. DU PONT DE NEMOURS AND COMPANY, priority 2014, dated 2018)
